One data set relates to SARS-CoV-2. Description: microbe, parasite or virus in culture. It is filed as cell-based. As to conditions: Severe acute respiratory syndrome coronavirus 2, A549, 48 h; read-out: IC50 for inhibition of SARS CoV-2 mediated cell killing.
In data set [1] the test system is SARS CoV-2 (USA_WA1/2020). Description: SARS CoV-2 CPE assay for antiviral activity (Vero E6 host cells, Cell Titer-Glo). It is filed as cell-based. As to conditions: read-out: IC50 for inhibition of SARS CoV-2 mediated cell killing. For orientation: Cellular ATP, detected with luciferase, serves as a proxy for viable cell number.
Data set [2] in a line: Compound cytotoxicity (CC50) counter screen in Vero E6 cells. It is filed as cell-based. Conditions: African green monkey, read-out: CC50 (general cytotoxic effects in Vero E6 cells). As for the experimental part:
Compound cytotoxicity (CC50) is assessed in a BSL-2 counter screen as follows: Host cells in media are added in 25 μl aliquots (4000 cells/well) to each well of assay ready plates prepared with test compounds as above. Cells only (100% viability) and cells treated with hyamine at 100 μM final concentration (0% viability) serve as the high and low signal controls, respectively, for cytotoxic effect in the assay. DMSO is maintained at a constant concentration for all wells (0.3%) as dictated by the dilution factor of stock test compound concentrations. After incubating plates at 37° C./5% CO2 and 90% humidity for 72 hours, 30 μl Cell Titer-Glo (Promega) is added to each well. Luminescence is read using a BMG PHERAstar plate reader following incubation at room temperature for 10 minutes to measure cell viability.
(In general: A counterscreen serves to expose hits that act by an unwanted route or on another target.)

Another data set can be described thus: in vitro. As to conditions: human.
Setting [3] is: Vero C1008, Vero E6 cells, 10-point dose response, high concentration 15 μM, 72 hours.

The IC50 is the concentration that gives 50% inhibition.

Where two headings read alike, the source gives them in different places.

Regarding `O=c1cc(-c2ccnc3[nH]ncc23)cc(N2CCCCC2C(F)(F)F)[nH]1` (stereo not shown) [Compound 1], the IC50 in the data set on SARS-CoV-2 was 510 nM; in data set [1] (setting [3]) it was 470 nM. Moreover, in data set [2], the CC50 at 72 h was 15000 nM. The molecule also came in with a CC50 in “in vitro” of 8000 nM.

Regarding `N#Cc1cc2c(-c3cc(-c4ccccc4C(F)(F)F)[nH]c(=O)c3)ccnc2[nH]1` [Compound 2], the half-inhibitory concentration (IC50) in the data set on SARS-CoV-2 came out at 1570 nM; in data set [1] (setting [3]), 3010 nM. Besides, in data set [2], the CC50 at 72 h is > 10000 nM. In addition, in the data set “in vitro”, the CC50 is > 10000 nM.

For the molecule `O=c1cc(-c2ccnc3[nH]c(C4CC4)cc23)cc(N2CCCCC2C(F)(F)F)[nH]1` (stereo not shown) [Compound 3], the IC50 in the data set with SARS-CoV-2 came to 29 nM; in data set [1] (setting [3]), 114 nM. Moreover, in data set [2], the CC50 at 72 h came to 2830 nM. The molecule further had a CC50 in “in vitro” of 482 nM.

Consider `Cc1ccc(-c2cc3c(-c4cc(N5CCOCC5C(F)(F)F)[nH]c(=O)c4)ccnc3[nH]2)s1` (stereo not shown) [Compound 4], for which the IC50 in the data set on SARS-CoV-2 amounted to 158 nM; in data set [1] (Vero C1008, 72 h), 1040 nM. The CC50 at 72 h in data set [2] amounted to 1430 nM. Further, the CC50 in the data set “in vitro” was 411 nM.

The values are drawn from patent US20220184054A1, “ANTI-VIRAL ACTIVITY OF VPS34 INHIBITORS” (priority 2020, published 2022).
